Source: ChEMBL document CHEMBL5036339, “Synthesis and biological evaluation of indole-based peptidomimetics as antibacterial agents against Gram-positive bacteria” (Eur J Med Chem, 2021)
≈ marks a conversion by molar mass, not a printed value. Calls of active or inactive are those of the source. No cut-off for these calls is given here.

Tests used:
Staphylococcus aureus [1] = assay: Antibacterial activity against methicillin-resistant Staphylococcus aureus NCTC 10442 assessed as reduction in bacterial growth in presence of calcium salt; assay type: functional
Staphylococcus aureus [2] = assay: Antibacterial activity against methicillin-resistant Staphylococcus aureus NCTC 10442 assessed as reduction in bacterial growth; assay type: functional
Staphylococcus aureus [3] = assay: Antibacterial activity against Staphylococcus aureus ATCC29213 assessed as reduction in bacterial growth in presence of magnesium salt; assay type: functional
Staphylococcus aureus [4] = assay: Antibacterial activity against methicillin-resistant Staphylococcus aureus N315 assessed as reduction in bacterial growth; assay type: functional
HEK293 [5] = assay: Cytotoxicity against human HEK293 cells assessed as reduction in cell viability at 12.5 ug/ml after 24 hrs by CCK8 assay; assay type: cell-based; settings: hek293, 24 h, at 12.5 µg/mL
Staphylococcus aureus [6] = assay: Bactericidal activity against Staphylococcus aureus NCTC 10442 assessed as log reduction in bacterial growth at 1X MIC measured within 24 hr by time-kill kinetic assay; assay type: functional
HEK293 [7] = assay: Cytotoxicity against human HEK293 cells assessed as reduction in cell viability at 6.25 ug/ml after 24 hrs by CCK8 assay; assay type: cell-based; settings: hek293, 24 h, at 6.25 µg/mL
Staphylococcus aureus [8] = assay: Bactericidal activity against Staphylococcus aureus NCTC 10442 assessed as log reduction in bacterial growth at 8X MIC measured within 0.5 hr by time-kill kinetic assay; assay type: functional
Staphylococcus aureus [9] = assay: In vivo antibacterial activity against Staphylococcus aureus ATCC29213 in mouse bacterial keratitis model assessed as log reduction in bacterial load in infected cornea at 0.5%,TOP after 24 hour infection; assay type: functional, organism-based
HEK293 [10] = assay: Cytotoxicity against human HEK293 cells assessed as reduction in cell viability at 25 ug/ml after 24 hrs by CCK8 assay; assay type: cell-based; settings: hek293, 24 h, at 25 µg/mL
Escherichia coli = assay: Antibacterial activity against Escherichia coli ATCC25922 assessed as reduction in bacterial growth; assay type: functional
Staphylococcus aureus [11] = assay: Antibacterial activity against Staphylococcus aureus ATCC29213 assessed as reduction in bacterial growth in presence of sodium salt; assay type: functional
Staphylococcus aureus [12] = assay: Antibacterial activity against methicillin-resistant Staphylococcus aureus N315 assessed as reduction in bacterial growth in presence of sodium salt; assay type: functional
Staphylococcus aureus [13] = assay: Antibacterial activity against methicillin-resistant Staphylococcus aureus NCTC 10442 assessed as reduction in bacterial growth in presence of ferric salt; assay type: functional
Staphylococcus aureus [14] = assay: Bactericidal activity against Staphylococcus aureus NCTC 10442 assessed as log reduction in bacterial growth at 4X MIC measured within 0.5 hr by time-kill kinetic assay; assay type: functional; settings: time hrs <=0.5
Staphylococcus aureus [15] = assay: Antibacterial activity against Staphylococcus aureus ATCC29213 assessed as reduction in bacterial growth in presence of potassium salt; assay type: functional
Staphylococcus aureus [16] = assay: Antibacterial activity against methicillin-resistant Staphylococcus aureus N315 assessed as reduction in bacterial growth in presence of ferrous salt; assay type: functional
Staphylococcus aureus [17] = assay: Antibacterial activity against methicillin-resistant Staphylococcus aureus N315 assessed as reduction in bacterial growth in presence of magnesium salt; assay type: functional
[18] = Cytotoxicity against mouse NCTC clone 929 cells assessed as reduction in cell viability at 50 ug/ml after 24 hrs by CCK8 assay; assay type: cell-based; settings: nctc clone 929, 24 h, at 50 µg/mL
Staphylococcus aureus [19] = assay: Antibacterial activity against methicillin-resistant Staphylococcus aureus NCTC 10442 assessed as reduction in bacterial growth in presence of sodium salt; assay type: functional
J774.A1 [20] = assay: Cytotoxicity against mouse J774.A1 cells assessed as reduction in cell viability at 25 ug/ml after 24 hrs by CCK8 assay; assay type: cell-based; settings: j774.a1, 24 h, at 25 µg/mL
Staphylococcus aureus [21] = assay: Antibacterial activity against Staphylococcus aureus ATCC29213 assessed as reduction in bacterial growth in presence of calcium salt; assay type: functional
[22] = Hemolytic activity in rabbit erythrocytes assessed as concentration required to cause 50% hemolysis; assay type: ADME, cell-based, Oryctolagus cuniculus, Erythrocyte
Staphylococcus aureus [23] = assay: Antibacterial activity against methicillin-resistant Staphylococcus aureus NCTC 10442 assessed as reduction in bacterial growth in presence of ferrous salt; assay type: functional
J774.A1 [24] = assay: Cytotoxicity against mouse J774.A1 cells assessed as reduction in cell viability at 12.5 ug/ml after 24 hrs by CCK8 assay; assay type: cell-based; settings: j774.a1, 24 h, at 12.5 µg/mL
J774.A1 [25] = assay: Cytotoxicity against mouse J774.A1 cells assessed as reduction in cell viability at 6.25 ug/ml after 24 hrs by CCK8 assay; assay type: cell-based; settings: j774.a1, 24 h, at 6.25 µg/mL
[26] = Cytotoxicity against mouse NCTC clone 929 cells assessed as reduction in cell viability at 25 ug/ml after 24 hrs by CCK8 assay; assay type: cell-based; settings: nctc clone 929, 24 h, at 25 µg/mL
Staphylococcus aureus [27] = assay: Antibacterial activity against methicillin-resistant Staphylococcus aureus NCTC 10442 assessed as reduction in bacterial growth in presence of zinc salt; assay type: functional
Staphylococcus aureus [28] = assay: Antibacterial activity against Staphylococcus aureus ATCC29213 assessed as reduction in bacterial growth in presence of zinc salt; assay type: functional
Staphylococcus aureus [29] = assay: Antibacterial activity against methicillin-resistant Staphylococcus aureus N315 assessed as reduction in bacterial growth in presence of ferric salt; assay type: functional
[30] = Cytotoxicity against mouse NCTC clone 929 cells assessed as reduction in cell viability at 12.5 ug/ml after 24 hrs by CCK8 assay; assay type: cell-based; settings: nctc clone 929, 24 h, at 12.5 µg/mL
HEK293 [31] = assay: Cytotoxicity against human HEK293 cells assessed as reduction in cell viability at 3.125 ug/ml after 24 hrs by CCK8 assay; assay type: cell-based; settings: hek293, 24 h, at 3.125 µg/mL
Cell membrane = assay: Induction of membrane disruption in […] assessed as increase in red fluorescence at 12.48 ug/ml by SYTO 9/PI staining based flourescence microscopy method; assay type: functional; settings: dose 12.48 µg/ml
Staphylococcus aureus [32] = assay: Antibacterial activity against methicillin-resistant Staphylococcus aureus N315 assessed as reduction in bacterial growth in presence of calcium salt; assay type: functional
Staphylococcus aureus [33] = assay: Bactericidal activity against Staphylococcus aureus NCTC 10442 assessed as log reduction in bacterial growth at 2X MIC measured within 24 hr by time-kill kinetic assay; assay type: functional
Staphylococcus aureus [34] = assay: Antibacterial activity against Staphylococcus aureus ATCC29213 assessed as reduction in bacterial growth in presence of ferrous salt; assay type: functional
Staphylococcus aureus [35] = assay: Antibacterial activity against methicillin-resistant Staphylococcus aureus NCTC 10442 assessed as reduction in bacterial growth in presence of magnesium salt; assay type: functional
J774.A1 [36] = assay: Cytotoxicity against mouse J774.A1 cells assessed as reduction in cell viability at 3.125 ug/ml after 24 hrs by CCK8 assay; assay type: cell-based; settings: j774.a1, 24 h, at 3.125 µg/mL
Staphylococcus aureus [37] = assay: Antibacterial activity against Staphylococcus aureus ATCC29213 assessed as reduction in bacterial growth; assay type: functional
Staphylococcus aureus [38] = assay: Antibacterial activity against methicillin-resistant Staphylococcus aureus NCTC 10442 assessed as reduction in bacterial growth in presence of potassium salt; assay type: functional
Staphylococcus aureus [39] = assay: Induction of drug resistance in Staphylococcus aureus ATCC29213 assessed as reduction in bacterial growth at 0.5 times MIC measured after 24 hr; assay type: functional, organism-based
Staphylococcus aureus [40] = assay: Antibacterial activity against methicillin-resistant Staphylococcus aureus N315 assessed as reduction in bacterial growth in presence of potassium salt; assay type: functional
[41] = Cytotoxicity against mouse NCTC clone 929 cells assessed as reduction in cell viability at 6.25 ug/ml after 24 hrs by CCK8 assay; assay type: cell-based; settings: nctc clone 929, 24 h, at 6.25 µg/mL
HEK293 [42] = assay: Cytotoxicity against human HEK293 cells assessed as reduction in cell viability at 50 ug/ml after 24 hrs by CCK8 assay; assay type: cell-based; settings: hek293, 24 h, at 50 µg/mL
Staphylococcus aureus [43] = assay: Antibacterial activity against methicillin-resistant Staphylococcus aureus N315 assessed as reduction in bacterial growth in presence of zinc salt; assay type: functional
Staphylococcus aureus [44] = assay: Antibacterial activity against Staphylococcus aureus ATCC29213 assessed as reduction in bacterial growth in presence of ferric salt; assay type: functional
J774.A1 [45] = assay: Cytotoxicity against mouse J774.A1 cells assessed as reduction in cell viability at 50 ug/ml after 24 hrs by CCK8 assay; assay type: cell-based; settings: j774.a1, 24 h, at 50 µg/mL
[46] = Cytotoxicity against mouse NCTC clone 929 cells assessed as reduction in cell viability at 3.125 ug/ml after 24 hrs by CCK8 assay; assay type: cell-based; settings: nctc clone 929, 24 h, at 3.125 µg/mL

CC(C)=CCC/C(C)=C/Cn1cc(CC(=O)NCCN(CCNC(=N)N)CCNC(=N)N)c2ccccc21
MIC (Staphylococcus aureus [1]): 1.56 µg/mL
MIC (Staphylococcus aureus [2]): 1.56 µg/mL (≈ 2.98 µM)
MIC (Staphylococcus aureus [3]): 1.56 µg/mL
MIC (Staphylococcus aureus [4]): 1.56 µg/mL (≈ 2.98 µM)
Activity (HEK293 [5]): 84.69%
Activity (Staphylococcus aureus [6]): 3 CFU
Activity (HEK293 [7]): 92.66%
Activity (Staphylococcus aureus [8]): 3 CFU
Activity (Staphylococcus aureus [9]): Active
Activity (HEK293 [10]): 76.79%
MIC (Escherichia coli): 12.5 µg/mL (≈ 23.9 µM)
MIC (Staphylococcus aureus [11]): 1.56 µg/mL
MIC (Staphylococcus aureus [12]): 1.56 µg/mL
MIC (Staphylococcus aureus [13]): 1.56 µg/mL
log reduction (Staphylococcus aureus [14]): 3 log10 CFU/mL
MIC (Staphylococcus aureus [15]): 1.56 µg/mL
MIC (Staphylococcus aureus [16]): 1.56 µg/mL
MIC (Staphylococcus aureus [17]): 1.56 µg/mL
Activity [18]: 64.79%
MIC (Staphylococcus aureus [19]): 1.56 µg/mL
Activity (J774.A1 [20]): 77.46%
MIC (Staphylococcus aureus [21]): 1.56 µg/mL
HC50 [22]: 226 µg/mL
MIC (Staphylococcus aureus [23]): 1.56 µg/mL
Activity (J774.A1 [24]): 85.85%
Activity (J774.A1 [25]): 95.8%
Activity [26]: 71.16%
MIC (Staphylococcus aureus [27]): 1.56 µg/mL
MIC (Staphylococcus aureus [28]): 1.56 µg/mL
MIC (Staphylococcus aureus [29]): 1.56 µg/mL
Activity [30]: 72.66%
Activity (HEK293 [31]): 94.48%
Activity (Cell membrane): Active
MIC (Staphylococcus aureus [32]): 1.56 µg/mL
Activity (Staphylococcus aureus [33]): 3 CFU
MIC (Staphylococcus aureus [34]): 1.56 µg/mL
MIC (Staphylococcus aureus [35]): 1.56 µg/mL
Activity (J774.A1 [36]): 100.34%
MIC (Staphylococcus aureus [37]): 1.56 µg/mL (≈ 2.98 µM)
MIC (Staphylococcus aureus [38]): 1.56 µg/mL
Activity (Staphylococcus aureus [39]): inactive
MIC (Staphylococcus aureus [40]): 1.56 µg/mL
Activity [41]: 79.43%
Activity (HEK293 [42]): 68.26%
MIC (Staphylococcus aureus [43]): 1.56 µg/mL
MIC (Staphylococcus aureus [44]): 1.56 µg/mL
Activity (J774.A1 [45]): 56%
Activity [46]: 87.85%
